Laboratory results: ChEMBL document CHEMBL1201862, “PubChem BioAssay data set” (2004)
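1) Cells in 96-well plates. 2) Compound, 48 h, 5 concentrations. 3) Linear interpolation between surrounding doses. 4) Unreached endpoint = highest concentration. GI50 marks 50% less growth.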 The source made the active and inactive calls. Cut-off read from the data, not from the text of the source: active = GI50 up to about 1.1 µM and inactive = higher.

What was measured:
Test in all cases: DTP human tumour cell line panel, 48 h
[1] = test system: DU-145
[2] = test system: Hs-578T
[3] = test system: DLD-1
[4] = test system: DMS-114
[5] = test system: KM-20L2
[6] = test system: LXFL 529
[7] = test system: SNB-78
[8] = test system: HOP-18

Measured: GI50

O=C1NC(=S)NC(=O)C1=Cc1cccc2cc3ccccc3cc12
inactive: [1] 1.47 µM | [2] 2.97 µM

N#Cc1c(C#N)c(-c2ccccc2)n(-c2ccccc2)c1N
inactive: [1] 85.7 µM | [2] 21 µM

CC12C=CC(=O)C=C1CCC1C3CCC(O)(C(=O)CO)C3(C)CC(O)C12F (configuration not stated)
inactive: [3] > 100 µM | [4] > 100 µM | [1] > 100 µM | [2] > 100 µM | [5] > 100 µM | [6] > 100 µM | [7] > 100 µM

CCN(CC)c1ccc(C2NC(=O)c3ccccc3N2)cc1 (configuration not stated)
inactive: [1] 1.48 µM | [2] 9.64 µM

O=c1[nH]nc(-c2ccccc2)n1/N=C/c1ccncc1
inactive: [1] > 100 µM | [2] 26.2 µM

O=C1C2CCCCC2C(=O)N1n1c(Cc2ccc(Cl)cc2)n[nH]c1=O (configuration not stated)
inactive: [2] > 100 µM

CCN1CCC(O)(c2ccc(Cl)c(Cl)c2)C(C(=O)c2ccc(Cl)c(Cl)c2)C1 (configuration not stated)
inactive: [3] 17.8 µM | [4] 17.1 µM | [5] 17.9 µM | [6] 16.2 µM

COCc1nc2c(OC)c(-c3nc4ccc(N5CCN(C)CC5)cc4[nH]3)cc(OC)c2[nH]1
inactive: [1] 31.3 µM | [2] 69.8 µM

COc1cc(CC2C(=O)OCC2Cc2ccc(OC)c(OC)c2)ccc1O (configuration not stated)
inactive: [1] > 100 µM | [2] > 100 µM

c1ccc2cc(CN3CCC(C4CCN(Cc5ccc6ccccc6c5)CC4)CC3)ccc2c1
inactive: [1] 11.8 µM | [2] 2.49 µM

CC(C)(C)OC(=O)NC(CCCCNC(=O)OCc1ccccc1)C(=O)NC(CCCCNC(=O)OCc1ccccc1)C(=O)ON1C(=O)CCC1=O (configuration not stated)
inactive: [2] > 100 µM

Nn1c(S)nnc1N/N=C1/C(=O)Nc2ccccc21
inactive: [3] 48.9 µM | [4] > 100 µM | [8] 70.5 µM | [5] > 100 µM | [6] 39.5 µM | [7] > 100 µM

COc1cccc(OC)c1NC(=O)C(=O)Nn1c(NNC(=O)c2ccncc2)nc2ccccc2c1=O
inactive: [2] > 100 µM

COc1cc(C(=O)C/C(CCC(=O)Nc2ccc(Cl)cc2Cl)=N/Nc2nnc(C)n2N)ccc1O
inactive: [3] > 100 µM | [8] > 100 µM | [5] > 100 µM | [6] > 100 µM | [7] > 100 µM

CNC(=O)Oc1ccc(C(=S)Nc2ccc(Br)cc2)cc1
inactive: [1] 26.5 µM | [2] 19.8 µM

COC(=O)c1ccccc1C1=C([N+](=O)[O-])C(c2cccc(Br)c2)C(C#N)=C(N)O1 (configuration not stated)
inactive: [1] 32.3 µM | [2] 18.3 µM

O=C(/C=C1/Nc2ccc([N+](=O)[O-])cc2N/C1=C/C(=O)c1ccc(Cl)cc1)c1ccc(Cl)cc1
inactive: [1] > 100 µM

CCCNC(=O)N(C)C(=O)N1N=C(c2ccccc2)C1c1ccccc1 (configuration not stated)
inactive: [1] > 100 µM

CSc1nc(Cl)c2c(n1)Sc1nc3ccccc3n1N=C2
inactive: [1] > 100 µM | [2] 26.7 µM

CCc1ccc(Nc2ccc([N+](=O)[O-])cc2[N+](=O)[O-])cc1
inactive: [3] > 100 µM | [4] 29.4 µM | [5] 69.3 µM | [6] 50.9 µM | [7] 87.3 µM

CCN(CC)C(=O)Cn1c(C)cc2ccccc21
inactive: [1] > 100 µM | [2] > 100 µM

Nc1cnc(Nc2cccc3ccccc23)o1
inactive: [1] > 10 µM | [2] > 10 µM

C/C(=C\c1ccc(Cl)c(Cl)c1)[N+](=O)[O-]
inactive: [1] 1.63 µM | [2] 3.24 µM

C[C@]12CC(C#N)C(=O)C(O)=C1CC[C@@H]1C2CC[C@@]2(C)C1CC[C@@H]2O (some centres not stated)
inactive: [3] 58.3 µM | [4] 49 µM | [5] 95.5 µM | [6] 65.5 µM | [7] 65.3 µM

COc1ccc(C2=NN(c3ccccc3)C[N+](c3ccc(C)cc3)=N2)cc1
inactive: [3] 40.6 µM | [4] 24.7 µM | [5] 59 µM | [6] 16.3 µM | [7] 27.9 µM

O=C1C=CC2(C=C1)CCC(=O)O2
inactive: [1] 15.5 µM | [2] 10.6 µM

CN(C)P(=O)(/C(N)=N/Nc1ccc([N+](=O)[O-])cc1)N(C)C
inactive: [3] > 100 µM | [4] 61.7 µM | [5] > 100 µM | [6] > 100 µM | [7] > 100 µM

CC(=O)O[C@H]1CCC2[C@@H]3CCC4c5nonc5CC[C@]4(C)C3CC[C@@]21C (some centres not stated)
inactive: [3] > 10 µM | [4] > 10 µM | [8] > 10 µM | [5] > 10 µM | [6] > 10 µM | [7] > 10 µM

CNC(SC)=C1C(=O)OC(C)(C)OC1=O
inactive: [3] 22.2 µM | [4] 34.8 µM | [8] > 100 µM | [5] > 100 µM | [6] > 100 µM | [7] 36.4 µM
